Reference: US20260116867A1, “PROTEOLYSIS TARGETING CHIMERAS FOR HUMAN PREGNANE X RECEPTOR AND FOR DEGRADATION OF GSPT1” (ST. JUDE CHILDREN'S RESEARCH HOSPITAL, priority 2022, published 2026)

Assays:
Assay type in all cases: cell-based, human
[1] = tested on: SNU—C4 3xFLAG-PXR KI cells; experiment: TMT-MS whole-proteome quantification in SNU—C4 3xFLAG-PXR KI cells; details: 5 μM, 12 h vs DMSO; 9,692 proteins detected
Procedure: The next day, 0.5% DMSO or 5 μM SJPYT-195 was added to triplicate dishes. After 12 h, the media were removed, cells were washed twice with ice cold PBS, 500 μL of 50 mM HEPES (pH 8.0) and 8 M urea was added to each dish, cells were scraped and transferred to 1.5 mL tubes, and the tubes were frozen on dry ice and stored at −80° C. Processing for TMT-MS was conducted according to a previously optimized protocol. To profile the whole proteome, the cell lysates (approximately 100 μg of protein per sample) were proteolyzed with Lys-C(Wako) at an enzyme-to-substrate ratio of 1:100 (w/w) for 3 h at room temperature. Samples were diluted with 50 mM HEPES (pH 8.5) to a final 2 M urea concentration. […]
Dried peptides were resuspended in 50 μL 100 mM HEPES (pH 8.5) and labeled with TMTpro 16plex Label Reagents [Thermo Fisher Scientific, 10 μg/μL in 100% ACN, 1:2 (w/w) ratio, room temperature for 1 h]. […] Fractions were dried in SpeedVac and resuspended in 5 μL 5% FA/1% trifluoroacetic acid immediately prior to mass spectrometry and quantitation analysis. […]
MS raw files were converted to mzXML files, and database searches were performed against Uniprot HUMAN protein database using our in-house developed JUMP pipeline. […] TMT-based quantification and statistical analysis were performed based on our previous method. […]

[2] = tested on: SNU—C4 3xFLAG-PXR KI cell lines stably expressing HA-tagged GSPT1^G575N; experiment: Cytotoxicity assay in cells overexpressing degradation-resistant GSPT1 mutant; details: FIG. 7B-C
Procedure: Complete information for all plasmids is included in Table 1 below. […] Lentiviruses for pCDH-GSPT1 or pCDH-GSPT1^G575N were generated in 293T cells using psPAX2 and pMD2.G packaging vectors. The packaging vectors were gifts from Dr. Didier Trono (Addgene plasmid #12259 and 12260).
The indicated cells (2.5×10^3/well in 40 μL RPMI with 10% FBS) were plated in the 384-well plates, resulting in 0.5% DMSO and the indicated concentrations of chemicals. After 72 h compound treatment, the CellTiter-Glo Luminescent Cell Viability Assay (Promega) and an EnVision microplate reader were used to assess cytotoxicity. Wells containing DMSO alone or 10 μM staurosporine served as negative and positive controls, respectively. The percent cell viability for each well was calculated using equation 1: […]

PXR RNA = PXR RNA level in SNU—C4 3xFLAG-PXR KI cells

COc1ccc(OC)c(-n2nnc(C(=O)Nc3cc(Oc4cccc5c4C(=O)N(C4CCC(=O)NC4=O)C5=O)cc(C(C)(C)C)c3)c2C)c1 (stereo not shown) [Compound M4, N-(3-(tert-butyl)-5-((2-(2,6-dioxopiperidin-3-yl)-1,3-dioxoisoindolin-4-yl)oxy)phenyl)-1-(2,5-dimethoxyphenyl)-5-methyl-1H-1,2,3-triazole-4-carboxamide]
proteins changed at whole-proteome scale (selectivity) [1]: five down-regulated proteins (GSPT1, GSPT2, ZFP91, CYP1A1, and BRIP1) and one upregulated protein (FOS)
cytotoxicity in cells overexpressing GSPT1^G575N [2]: partially resistant
reduction of PXR RNA (PXR RNA; 5 μM, 12 h): negligible reduction
PXR RNA level (PXR RNA; time-course, FIG. 5C): drastically reduced PXR RNA level
